Target: Human IDO1 (Homo sapiens (Human), UniProt P14902)
Experiment: IDO Kynurenine Assay with Human IDO1/HEK293 Cells
Format: cell-based
Details: 20 hours incubation, kynurenine detected with Ehrlich reagent, absorbance at 490 nm, read-out: HEK Human IDO-1 IC50
Method: IDO Kynurenine Assay with Human IDO1/HEK293 Cells
Human IDO1/HEK293 cells were seeded at 10,000 cells per 50 uL per well with RPMI/phenol red free media contains 10% FBS in a 384-well black wall clear bottom tissue culture plate (Matrix Technologies LLC) 125 nL of certain concentration of compound was then added to each well using ECHO liquid handling systems. The cells were incubated for 20 hours in 37° C. incubator with 5% CO2.
The compound treatments were stopped by adding Trichloroacetic Acid (Sigma-Aldrich) to a final concentration at 0.2%. The cell plate was further incubated at 50° C. for 30 minute. The equal volume supernatant (20 uL) and 0.2% (w/v) Ehrlich reagent (4-dimethylaminobenzaldehyde, Sigma-Aldrich) in glacial acetic acid were mixed in a new clear bottom 384-well plate. This plate was then incubated at room temperature for 30 minute. The absorbance at 490 nm was measured on Envision plate reader.
Compound IC50 values were calculated using the counts of 500 nM of a reference standard treatment as one hundred percent inhibition, and counts of no compound but DMSO treatment as zero percent inhibition.

Human IDO1, sequence (P14902 whole entry): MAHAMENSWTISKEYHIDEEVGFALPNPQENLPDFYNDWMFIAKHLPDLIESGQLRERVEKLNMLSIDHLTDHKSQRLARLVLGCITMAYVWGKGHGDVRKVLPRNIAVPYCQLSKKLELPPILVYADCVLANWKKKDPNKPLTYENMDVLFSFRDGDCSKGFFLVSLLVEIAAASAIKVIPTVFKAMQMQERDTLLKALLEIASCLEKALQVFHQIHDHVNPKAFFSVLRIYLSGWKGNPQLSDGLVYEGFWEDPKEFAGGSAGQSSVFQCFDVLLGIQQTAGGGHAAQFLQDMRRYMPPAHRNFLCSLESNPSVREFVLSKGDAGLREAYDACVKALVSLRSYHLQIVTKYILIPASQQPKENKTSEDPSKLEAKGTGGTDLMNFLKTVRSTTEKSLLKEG

Row | Structure (SMILES) | IC50 [nM]
1 | Cc1cc(NC(=O)Nc2cc([C@@H](C)CC(=O)O)ccc2N(CC(C)C)CC(C)C)no1 [Example 44, (S)-3-(4-(diisobutylamino)-3-(3-(5-methylisoxazol-3-yl)ureido)phenyl)butanoic acid] | 87
2 | CC(C)CN(CC(C)C)c1ccc([C@@H](C)CC(=O)O)cc1NC(=O)Nc1cncnc1 [Example 38, (S)-3-(4-(diisobutylamino)-3-(3-(pyrimidin-5-yl)ureido)phenyl)butanoic acid] | 29
3 | Cc1ccc(NC(=O)Nc2cc(C3(CC(=O)O)COC3)ccc2N(CC(C)C)CC(C)C)cc1 [Example 2, 2-(3-(4-(diisobutylamino)-3-(3-(p-tolyl)ureido)phenyl)oxetan-3-yl)acetic acid] | 205
4 | Cc1cc(NC(=O)Nc2cc(C(C)CC(=O)O)ccc2N(CC(C)C)CC(C)C)on1 (racemic) [Example 13, 3-(4-(diisobutylamino)-3-(3-(3-methylisoxazol-5-yl)ureido)phenyl)butanoic acid] | 3
5 | CC(C)CN(CC(C)C)c1ccc([C@H](C)CC(=O)O)cc1NC(=O)Cc1ccc(C#N)cc1 [Example 45, (R)-3-(3-(2-(4-cyanophenyl)acetamido)-4-(diisobutylamino)phenyl)butanoic acid] | 5
6 | CC(C)CN(CC(C)C)c1ccc([C@H](C)CC(=O)O)cc1NC(=O)Nc1cncnc1 [Example 37, (R)-3-(4-(diisobutylamino)-3-(3-(pyrimidin-5-yl)ureido)phenyl)butanoic acid] | 11
7 | Cc1ccc(NC(=O)Nc2cc([C@@H](C)CC(=O)O)ccc2N(CC(C)C)CC(C)C)cc1 [Example 43, (S)-3-(4-(diisobutylamino)-3-(3-(p-tolyl)ureido)phenyl)butanoic acid] | 17
8 | CC(C)CN(CC(C)C)c1ccc(C(CC(=O)O)C(F)(F)F)cc1NC(=O)Nc1ccc(F)cc1F (centres unmarked) [Example 30, 3-(3-(3-(2,4-difluorophenyl)ureido)-4-(diisobutylamino)phenyl)-4,4,4-trifluorobutanoic acid] | 0.7
9 | Cc1ncc(NC(=O)Nc2cc([C@H](C)CC(=O)O)ccc2N(CC(C)C)CC(C)C)cn1 [Example 40, (R)-3-(4-(diisobutylamino)-3-(3-(2-methylpyrimidin-5-yl)ureido)phenyl)butanoic acid] | 22
10 | Cc1ccc(NC(=O)Nc2cc(C(C)CC(=O)O)ccc2N(CC(C)C)C2CCCCC2)cc1 (racemic) [Example 49, 3-(4-(cyclohexyl(isobutyl)amino)-3-(3-(p-tolyl)ureido)phenyl)butanoic acid] | 1
11 | Cc1ncc(NC(=O)Nc2cc([C@@H](C)CC(=O)O)ccc2N(CC(C)C)CC(C)C)cn1 [Example 39, (S)-3-(4-(diisobutylamino)-3-(3-(2-methylpyrimidin-5-yl)ureido)phenyl)butanoic acid] | 169

— patent US9624188B2, “IDO inhibitors” (BRISTOL-MYERS SQUIBB COMPANY, priority 2013, dated 2017)
